This assay concerns the target T1, human Y4 receptor (Homo sapiens, UniProt P50391).
T1 construct: expressed in transfected cells
Put plainly: NPY4 cAMP HTRF Agonist Assay (inhibitory cAMP assay, Gi activation by Y4 agonism). The following applies: human Y4 stable CHO clonal cells, forskolin + IBMX; read-out: NPY4 cAMP HTRF Agonist Assay EC50. It is filed as cell-based. On the procedure: NPY4 cAMP HTRF Agonist Assay
The functionality of the compound at Y4 receptor was analyzed using a inhibitory cAMP assay (CISBIO, HTRF cAMP kit #62AM4PEC) to measure the Gi activation by Y4 agonism.
The human Y4 stable CHO clonal cells were maintained in culture medium (F-12 containing 10% Fetal Bovine Serum, […] GENETICIN®, […] Zeocin). Before the experiment, 5 μL of 1 uM Forskolin (Sigma, # F6886) and 100 uM IBMX (Sigma, # I5879) in PBS buffer were added into 384-well plates (PE, Proxi-plate) that were pre-dotted with 100 nL compounds. The cells were removed from the flasks by Cellstripper, counted and adjusted to 1.0×10^6 cells/mL in PBS buffer, and added 5 μL/well (5000 cells/well) into the above 384-well plates. The cells were then covered and incubated for 30 minutes at room temperature. After incubation, 5 μL/well of D2-conjugate in HTRF lysis buffer was first added, followed by adding 5 μL/well of anti-cAMP Cryptate in HTRF lysis buffer. The plates were incubated for another 1 hour at room temperature and read on the EnVision Multilabel Plate Reader.
Compounds described herein were tested in the above assay.

Structures are written as SMILES. Where a name gives a salt, the structure may show the parent alone.

By EC50 is commonly meant the midpoint of the concentration-response curve.

T1 sequence (P50391 whole entry): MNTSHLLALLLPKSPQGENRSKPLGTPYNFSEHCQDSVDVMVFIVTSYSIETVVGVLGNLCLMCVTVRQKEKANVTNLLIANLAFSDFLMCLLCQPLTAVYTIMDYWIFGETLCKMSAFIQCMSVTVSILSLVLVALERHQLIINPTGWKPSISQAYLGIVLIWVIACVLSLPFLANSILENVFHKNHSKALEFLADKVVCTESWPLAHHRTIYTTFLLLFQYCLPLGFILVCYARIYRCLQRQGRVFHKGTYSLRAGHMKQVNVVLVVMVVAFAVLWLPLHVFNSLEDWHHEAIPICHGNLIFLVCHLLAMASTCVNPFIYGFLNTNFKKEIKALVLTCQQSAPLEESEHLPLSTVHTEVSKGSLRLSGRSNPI

In the case of `N#Cc1ccc(N2CCC[C@H](N[C@@H]3CCCC[C@H]3Nc3ncc(-c4ccc(OC(F)(F)F)cc4)o3)C2)cc1` [Example 56, 4-((S)-3-((1R,2R)-2-(5-(4-(Trifluoromethoxy)phenyl)oxazol-2-ylamino)cyclohexylamino)piperidin-1-yl)benzonitrile], the EC50 was 23 nM.

In the case of `N#Cc1ccc(N2CCC[C@H](N[C@@H]3CCCC[C@H]3Nc3ncc(-c4ccccc4)o3)C2)cc1` [Example 57, 4-((S)-3-((1R,2R)-2-(5-Phenyloxazol-2-ylamino)cyclohexylamino)piperidin-1-yl)benzonitrile], the EC50 came to 25 nM.

Turning to `COc1ccc(-c2ccnc(N[C@@H]3CCCC[C@H]3N[C@H]3CCCN(c4ccc(C#N)cc4)C3)n2)cc1` [Example 58, 4-((S)-3-((1R,2R)-2-(4-(4-Methoxyphenyl)pyrimidin-2-ylamino)cyclohexylamino)piperidin-1-yl)benzonitrile trifluoroacetate], the EC50 is 1170 nM.

With `N#Cc1ccc(N2CCC[C@H](N[C@@H]3CCCC[C@H]3Nc3nccc(-c4ccc(OC(F)(F)F)cc4)n3)C2)cc1` [Example 59, 4-((S)-3-((1R,2R)-2-(4-(4-(Trifluoromethoxy)phenyl)pyrimidin-2-ylamino)cyclohexylamino)piperidin-1-yl)benzonitrile bis-trifluoroacetate], the EC50 worked out at 297 nM.

For `N#Cc1ccc(N2CCC[C@H](N[C@@H]3CCCC[C@H]3Nc3nccc(-c4ccccc4)n3)C2)cc1` [Example 60, 4-((S)-3-((1R,2R)-2-(4-Phenylpyrimidin-2-ylamino)cyclohexylamino)piperidin-1-yl)benzonitrile bis-trifluoroacetate], the EC50 is 500 nM.

For the molecule `N#Cc1ccc(N2CCC[C@H](N[C@@H]3CCCC[C@H]3Nc3nccc(-c4cccc(OC(F)(F)F)c4)n3)C2)cc1` [Example 61, 4-((S)-3-((1R,2R)-2-(4-(3-(Trifluoromethoxy)phenyl)pyrimidin-2-ylamino)cyclohexylamino)piperidin-1-yl)benzonitrile bis-trifluoroacetate], the EC50 was 861 nM.

Regarding `c1ccc(-c2cnc(N[C@@H]3CCCC[C@H]3N[C@H]3CCCN(c4ccc(-n5cccn5)cc4)C3)o2)cc1` [Example 62, (1R,2R)—N1-((S)-1-(4-(1H-Pyrazol-1-yl)phenyl)piperidin-3-yl)-N2-(5-phenyloxazol-2-yl)cyclohexane-1,2-diamine trifluoroacetate], the EC50 was determined as 61 nM.

With `FC(F)(F)Oc1ccc(-c2cnc(N[C@@H]3CCCC[C@H]3N[C@H]3CCCN(c4ccc(-n5cccn5)cc4)C3)o2)cc1` [Example 63, (1R,2R)—N1-((S)-1-(4-(1H-Pyrazol-1-yl)phenyl)piperidin-3-yl)-N2-(5-(4-(trifluoromethoxy)phenyl)oxazol-2-yl)cyclohexane-1,2-diamine trifluoroacetate], the EC50 was determined as 174 nM.

Consider `c1ccc(-c2ccnc(N[C@@H]3CCCC[C@H]3N[C@H]3CCCN(c4ccc(-n5cccn5)cc4)C3)n2)cc1` [Example 64, (1R,2R)—N1-((S)-1-(4-(1H-Pyrazol-1-yl)phenyl)piperidin-3-yl)-N2-(4-phenylpyrimidin-2-yl)cyclohexane-1,2-diamine bis-trifluoroacetate], for which the EC50 came out at 89 nM.

For the molecule `Cc1cnn(-c2ccc(N3CCC[C@H](N[C@@H]4CCCC[C@H]4Nc4nccc(-c5ccccc5)n4)C3)cc2)c1` [Example 65, (1R,2R)—N1-((S)-1-(4-(4-Methyl-1H-pyrazol-1-yl)phenyl)piperidin-3-yl)-N2-(4-phenylpyrimidin-2-yl)cyclohexane-1,2-diamine bis-trifluoroacetate], the concentration for a half-maximal effect (EC50) is 62 nM.

Consider `Cc1cnn(-c2ccc(N3CCC[C@H](N[C@@H]4CCCC[C@H]4Nc4ncc(-c5ccc(OC(F)(F)F)cc5)o4)C3)cc2)c1` [Example 66, (1R,2R)—N1-((S)-1-(4-(4-Methyl-1H-pyrazol-1-yl)phenyl)piperidin-3-yl)-N2-(5-(4-(trifluoromethoxy)phenyl)oxazol-2-yl)cyclohexane-1,2-diamine bis-trifluoroacetate], for which the 50% effective concentration (EC50) turned out to be 1260 nM.

Consider `Cc1ccn(-c2ccc(N3CCC[C@H](N[C@@H]4CCCC[C@H]4Nc4nccc(-c5ccccc5)n4)C3)cc2)n1` [Example 67, (1R,2R)—N1-((S)-1-(4-(3-Methyl-1H-pyrazol-1-yl)phenyl)piperidin-3-yl)-N2-(4-phenylpyrimidin-2-yl)cyclohexane-1,2-diamine bis-trifluoroacetate], for which the EC50 was found to be 57 nM.

With `Cc1ccn(-c2ccc(N3CCC[C@H](N[C@@H]4CCCC[C@H]4Nc4ncc(-c5ccc(OC(F)(F)F)cc5)o4)C3)cc2)n1` [Example 68, (1R,2R)—N1-((S)-1-(4-(3-Methyl-1H-pyrazol-1-yl)phenyl)piperidin-3-yl)-N2-(5-(4-(trifluoromethoxy)phenyl)oxazol-2-yl)cyclohexane-1,2-diamine bis-trifluoroacetate], the concentration for a half-maximal effect (EC50) came out at 489 nM.

Take `FC(F)(F)c1ccn(-c2ccc(N3CCC[C@H](N[C@@H]4CCCC[C@H]4Nc4nccc(-c5ccccc5)n4)C3)cc2)n1` [Example 69, (1R,2R)—N1-(4-Phenylpyrimidin-2-yl)-N2-((S)-1-(4-(3-(trifluoromethyl)-1H-pyrazol-1-yl)phenyl)piperidin-3-yl)cyclohexane-1,2-diamine bis-trifluoroacetate]: the concentration for a half-maximal effect (EC50) came out at 384 nM.

Regarding `FC(F)(F)Oc1ccc(-c2cnc(N[C@@H]3CCCC[C@H]3N[C@H]3CCCN(c4ccc(-n5ccc(C(F)(F)F)n5)cc4)C3)o2)cc1` [Example 70, (1R,2R)—N1-(5-(4-(Trifluoromethoxy)phenyl)oxazol-2-yl)-N2-((S)-1-(4-(3-(trifluoromethyl)-1H-pyrazol-1-yl)phenyl)piperidin-3-yl)cyclohexane-1,2-diamine bis-trifluoroacetate], the EC50 was found to be 799 nM.

In the case of `FC(F)(F)Oc1ccc(-c2cnc(N[C@@H]3CCCC[C@H]3N[C@H]3CCCN(c4ccc(C(F)(F)F)cc4)C3)o2)cc1` [Example 71, (1R,2R)—N1-(5-(4-(Trifluoromethoxy)phenyl)oxazol-2-yl)-N2-((S)-1-(4-(trifluoromethyl)phenyl)piperidin-3-yl)cyclohexane-1,2-diamine], the EC50 was 45 nM.

Regarding `FC(F)(F)c1ccc(N2CCC[C@H](N[C@@H]3CCCC[C@H]3Nc3ncc(-c4ccccc4)s3)C2)cc1` [Example 72, (1R,2R)—N1-(5-Phenylthiazol-2-yl)-N2-((S)-1-(4-(trifluoromethyl)phenyl)piperidin-3-yl)cyclohexane-1,2-diamine], the half-maximal effective concentration (EC50) was 15 nM.

In the case of `Fc1cc(N2CCC[C@H](N[C@@H]3CCCC[C@H]3Nc3ncc(-c4ccc(OC(F)(F)F)cc4)o3)C2)ccc1C(F)(F)F` [Example 73, (1R,2R)—N1-((S)-1-(3-Fluoro-4-(trifluoromethyl)phenyl)piperidin-3-yl)-N2-(5-(4-(trifluoromethoxy)phenyl)oxazol-2-yl)cyclohexane-1,2-diamine bis-trifluoroacetate], the EC50 amounted to 83 nM.

As to `Fc1cc(N2CCC[C@H](N[C@@H]3CCCC[C@H]3Nc3nccc(-c4ccccc4)n3)C2)ccc1C(F)(F)F` [Example 74, (1R,2R)—N1-((S)-1-(3-Fluoro-4-(trifluoromethyl)phenyl)piperidin-3-yl)-N2-(4-phenylpyrimidin-2-yl)cyclohexane-1,2-diamine bis-trifluoroacetate], the 50% effective concentration (EC50) worked out at 420 nM.

Turning to `FC(F)(F)c1ccc(N2CCC[C@H](N[C@@H]3CCCC[C@H]3Nc3cc(-c4ccccc4)ccn3)C2)cc1` [Example 75, (1R,2R)—N1-(4-Phenylpyridin-2-yl)-N2-((S)-1-(4-(trifluoromethyl)phenyl)piperidin-3-yl)cyclohexane-1,2-diamine], the half-maximal effective concentration (EC50) worked out at 252 nM.

Take `Fc1cccc(-c2cnc(N[C@@H]3CCCC[C@H]3N[C@H]3CCCN(c4ccc(C(F)(F)F)cc4)C3)o2)c1` [Example 76, (1R,2R)—N1-(5-(3-Fluorophenyl)oxazol-2-yl)-N2-((S)-1-(4-(trifluoromethyl)phenyl)piperidin-3-yl)cyclohexane-1,2-diamine]: the EC50 is 21 nM.

Take `O=[N+]([O-])c1cnc(N2CCC[C@H](N[C@@H]3CCCC[C@H]3Nc3ncc(-c4ccccc4)o3)C2)nc1` [Example 77, (1R,2R)—N1-((S)-1-(5-Nitropyrimidin-2-yl)piperidin-3-yl)-N2-(5-phenyloxazol-2-yl)cyclohexane-1,2-diamine bis-trifluoroacetate]: the EC50 was determined as 34 nM.

As for `O=[N+]([O-])c1cnc(N2CCC[C@H](N[C@@H]3CCCC[C@H]3Nc3ncc(-c4ccc(OC(F)(F)F)cc4)o3)C2)nc1` [Example 78, (1R,2R)—N1-((S)-1-(5-Nitropyrimidin-2-yl)piperidin-3-yl)-N2-(5-(4-(trifluoromethoxy)phenyl)oxazol-2-yl)cyclohexane-1,2-diamine bis-trifluoroacetate], the EC50 turned out to be 75 nM.

Consider `FC(F)(F)c1cnc(N2CCC[C@H](N[C@@H]3CCCC[C@H]3Nc3ncc(-c4ccccc4)o3)C2)nc1` [Example 79, (1R,2R)—N1-(5-Phenyloxazol-2-yl)-N2-((S)-1-(5-(trifluoromethyl)pyrimidin-2-yl)piperidin-3-yl)cyclohexane-1,2-diamine bis-trifluoroacetate], for which the EC50 is 83 nM.
